Reference: ChEMBL document CHEMBL1177668, “(-)-N-Formylanonaine from Michelia alba as a human tyrosinase inhibitor and antioxidant” (Bioorg Med Chem, 2010)
Calls of active or inactive are those of the source. No cut-off for these calls is given here.

Legend:
[1] = molecular target: T1, Tyrosinase (Homo sapiens) (UniProt P14679); assay: Inhibition of tyrosinase in human HEMn-MP assessed as oxidation of L-DOPA to dopaquinone at 100 uM after 2 days by spectrophotometric analysis
T1 sequence (whole entry): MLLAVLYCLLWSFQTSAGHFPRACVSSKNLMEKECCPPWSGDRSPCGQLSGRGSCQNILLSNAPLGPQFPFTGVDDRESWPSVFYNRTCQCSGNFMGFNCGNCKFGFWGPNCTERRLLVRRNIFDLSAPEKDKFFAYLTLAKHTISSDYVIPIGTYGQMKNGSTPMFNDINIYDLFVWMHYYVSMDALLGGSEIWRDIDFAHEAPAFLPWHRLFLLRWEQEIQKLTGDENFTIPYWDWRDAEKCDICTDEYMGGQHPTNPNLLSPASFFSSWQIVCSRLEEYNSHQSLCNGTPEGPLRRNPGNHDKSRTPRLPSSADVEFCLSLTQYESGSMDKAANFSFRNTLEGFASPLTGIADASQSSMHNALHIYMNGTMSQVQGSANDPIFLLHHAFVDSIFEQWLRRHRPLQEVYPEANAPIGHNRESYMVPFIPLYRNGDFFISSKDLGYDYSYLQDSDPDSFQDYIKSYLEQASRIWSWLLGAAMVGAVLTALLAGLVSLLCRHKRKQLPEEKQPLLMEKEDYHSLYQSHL

[2] = molecular target: T2, Tyrosinase (Homo sapiens, UniProt P14679); assay: Inhibition of tyrosinase in human HEMn-MP assessed as reduction of melanin level after 2 days by spectrophotometric analysis
T2 sequence (P14679 whole entry): T1 sequence (whole entry)

[3] = Cytotoxicity against human HEMn-MP after 48 hrs by MTT assay; settings: HEMn-MP cells
[4] = Cytotoxicity against human keratinocytes after 48 hrs by MTT assay; assay type: cell-based, Keratinocyte
[5] = Cytotoxicity against human fibroblasts after 48 hrs by MTT assay; assay type: cell-based, Fibroblast
[6] = Cytotoxicity against human HEMn-MP assessed as cell viability at 0.01 to 10 uM after 48 hrs by MTT assay; settings: HEMn-MP cells, read-out: Activity
[7] = Cytotoxicity against human HEMn-MP assessed as cell viability at 200 uM after 48 hrs by MTT assay
[8] = Cytotoxicity against human HEMn-MP assessed as cell death at 100 uM after 48 hrs by MTT assay
[9] = organism: Homo sapiens; assay: Induction of dendritic to bipolar morphology changes in human HEMn-MP at 100 uM after 48 hrs by phase contrast microscopic analysis; assay type: functional
[10] = organism: Homo sapiens; assay: Induction of dendritic to bipolar morphology changes in human HEMn-MP at 10 uM after 12 to 60 hrs by phase contrast microscopic analysis; assay type: functional
[11] = organism: Homo sapiens; assay: Induction of dendritic to bipolar morphology changes in human HEMn-MP at 200 uM after 12 to 60 hrs by phase contrast microscopic analysis; assay type: functional
[12] = organism: Homo sapiens; assay: Reduction of melanin production in human HEMn-MP at 10 uM after 12 to 60 hrs by phase contrast microscopic analysis; assay type: functional
[13] = organism: Homo sapiens; assay: Reduction of melanin production in human HEMn-MP at 200 uM after 12 to 60 hrs by phase contrast microscopic analysis; assay type: functional
[14] = Cytotoxicity against human HEMn-MP assessed as cell death at 10 to 200 uM after 2 to 60 hrs by phase contrast microscopic analysis
[15] = Cytotoxicity against human fibroblasts assessed as cell viability at 100 uM after 48 hrs by MTT assay; assay type: cell-based, Fibroblast; settings: read-out: Activity
[16] = system: Fibroblast; assay: Cytotoxicity against human fibroblasts assessed as cell viability at 200 uM after 48 hrs by MTT assay; assay type: cell-based
[17] = Cytotoxicity against human keratinocytes assessed as cell viability at 10 uM after 48 hrs by MTT assay; assay type: cell-based; settings: keratinocyte
[18] = system: Fibroblast; assay: Cytotoxicity against human fibroblasts assessed as cell viability at 10 uM after 48 hrs by MTT assay; assay type: cell-based
[19] = Antioxidant activity assessed as potassium ferric cyanide ion reducing power at 100 uM after 20 mins; assay type: functional
[20] = molecular target: T3, Tyrosinase (Agaricus bisporus, UniProt O42713)
T3 sequence (O42713 whole entry): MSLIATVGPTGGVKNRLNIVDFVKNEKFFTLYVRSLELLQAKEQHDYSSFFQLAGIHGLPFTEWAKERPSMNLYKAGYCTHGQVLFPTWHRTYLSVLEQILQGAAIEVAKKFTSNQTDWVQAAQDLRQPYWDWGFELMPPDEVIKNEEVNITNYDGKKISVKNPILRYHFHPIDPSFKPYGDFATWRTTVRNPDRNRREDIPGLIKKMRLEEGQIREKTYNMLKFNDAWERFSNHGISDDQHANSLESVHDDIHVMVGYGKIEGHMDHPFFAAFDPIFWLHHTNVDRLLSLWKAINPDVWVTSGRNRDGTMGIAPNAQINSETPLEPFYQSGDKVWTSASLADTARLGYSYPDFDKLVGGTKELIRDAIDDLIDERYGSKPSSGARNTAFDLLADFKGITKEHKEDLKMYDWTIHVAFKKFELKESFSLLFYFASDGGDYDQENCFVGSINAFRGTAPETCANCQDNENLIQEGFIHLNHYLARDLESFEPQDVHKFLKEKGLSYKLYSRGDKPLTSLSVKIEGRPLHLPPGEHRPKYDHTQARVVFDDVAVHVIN
Description: Inhibition of mushroom tyrosinase after 30 mins by spectrophotometric analysis

[21] = system: Radical scavenging activity
Description: Antioxidant activity assessed as DPPH free radical scavenging activity after 30 mins

## O=CN1CCc2cc3c(c4c2[C@H]1Cc1ccccc1-4)OCO3
[1]
  Activity: Active
[2]
  EC50: 90 µM
[3]
  CC50 at 48 h: 735 µM
[4]
  CC50 at 48 h: 355 µM
[5]
  CC50 at 48 h: 325 µM
[6]
  viability at 48 h, 10 µM: 90%
[7]
  Activity: Toxic
[8]
  Activity: Toxic
[9]
  Activity: Active
[10]
  Activity: Active
[11]
  Activity: Active
[12]
  Activity: Active
[13]
  Activity: Active
[14]
  Activity: Non-toxic
[15]
  viability at 48 h, 100 µM: 70%
[16]
  Activity: Non-toxic
[17]
  Activity: Non-toxic
[18]
  Activity: Non-toxic
[19]
  OD: 0.56
[20]
  IC50: 74.3 µM
[21]
  IC50: 121 µM

## COc1ccc(O)c(C(C)(C)C)c1.COc1ccc(O)cc1C(C)(C)C
[19]
  OD: 1.28

## O=C1O[C@H]([C@@H](O)CO)C(O)=C1O [ASCORBIC ACID]
[21]
  IC50: 52.1 µM
